# From PubChem BioAssay AID463074 (Broad Institute, 2010)
# The source made the active and inactive calls.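 How the source made its calls: active means AC50 no more than tenfold above the top dose tested, or full inhibition at every dose with a flat fit (cut at about 19 µM in these data); inconclusive means flat curve fit with inhibition between 30% and 70%, or poor fit; inactive means AC50 more than tenfold above the top dose tested.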
# System: HMLE_sh_eGFP viability, CellTiter-Glo luminescence, 72 h
# Test: cytotoxicity in HMLE control line with eGFP shRNA, dose response, counter-screen for HMLE_sh_ECad selective toxicity project, cell-based, HMLE_sh_eGFP, luminescence (AID 463074);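 further: counterscreen control line to flag general toxicity for the HMLE_sh_ECad screen; potency for loss of viability as luminescence drops below DMSO wells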
row,Structure (SMILES),AC50
1,CC(NC(=O)C1CCC(C(=O)NC(C)c2ccccc2)CC1)c1ccccc1 (stereo not drawn),> 19.5 µM (inactive)
2,COc1cc(CNCCc2c[nH]c3ccccc23)ccc1OCc1ccc(F)cc1,4.2 µM
3,COCCCn1c(SCc2cccc(C(F)(F)F)c2)nc2cc(OC)c(OC)cc2c1=N,4.75 µM
4,CC(=O)Nc1sc(C)c(C)c1C(=O)OCC(=O)N(CC(C)C)c1c(N)n(Cc2ccccc2)c(=O)[nH]c1=O,2.85 µM
5,CN(CC(O)CON=C1c2ccccc2-c2ccccc21)S(=O)(=O)c1ccc(Br)cc1 (stereo not drawn),4.4 µM
6,Cc1ccc(F)c(NC(=O)/C(C#N)=C(\O)c2ccc(C(C)(C)C)cc2)c1,8.58 µM
7,Cc1ccc(F)c([C@H]2C3C=CCC(c4ccccc4)C3C(=O)N2Cc2ccccc2)c1 (stereo partly drawn),6.52 µM
8,C=CCn1c2ccccc2c(=O)c2cc(C#Cc3cc(OC)cc(OC)c3)ccc21,11.1 µM
9,CCN1C(=O)C(CC(=O)Nc2ccc(F)cc2)N(CCCN2CCN(c3ccc(F)cc3)CC2)C1=S (stereo not drawn),6.83 µM
10,C[C@@H]1CCC(=O)N(CC[C@H](Sc2ccc(Br)cc2)c2ccccc2)CC1,5.66 µM
11,CCC1=Nc2cc(C(=O)NCc3cccnc3)ccc2Sc2ccc(C)cc21,0.816 µM
12,COc1ccc(NC(=O)c2cccc(-c3ccc(O)cc3)c2)cn1,7 µM
13,OC(COCC(F)(F)C(F)(F)C(F)(F)C(F)F)Cn1c2ccccc2c2ccccc21 (stereo not drawn),6.63 µM
14,CCN(CC)CCSc1nnc2c3ccccc3n(Cc3ccccc3)c2n1,2.47 µM
15,Nc1nnc(SCC(=O)OCC(=O)NC2CCCCC2)s1,> 19.5 µM (inactive)
16,Clc1ccccc1Cn1c(/C=C/c2ccco2)nc2ccccc21,2.19 µM
17,Nc1ccccc1N=Cc1c(O)n(CCC2=CCCCC2)c(=O)[nH]c1=O,> 19.5 µM (inactive)
18,CCC1C=CC=CC[C@H](C)[C@@H](O)[C@](C)(O)C(=O)[C@@H](C)[C@H](O)[C@@H](C)C(=O)[C@H](C)[C@@H](O)[C@H](C)C=CC(=O)OC2[C@@H](C)C(CC1)OC1(CC[C@@H](C)C(C[C@H](C)O)O1)[C@@H]2C (stereo partly drawn),3.2 µM
19,COc1cc(C(=O)OC2CC3CCC2(C)C3(C)C)ccc1OC(C)=O (stereo not drawn),6.46 µM
20,Cc1cccc(-c2oc3ccccc3c2C#CCCCCO)c1,7.62 µM
21,C/C(=N\Nc1ccccc1)c1c(O)n(-c2ccccc2)c(=O)[nH]c1=O,2.45 µM
22,CNc1oc(-c2ccc(Cl)cc2)nc1P(=O)(c1ccccc1)c1ccccc1,9.43 µM
23,CCC(O)(CC)C(=O)N/N=C/c1cc(Br)cc(Br)c1O,19.8 µM
24,O=C(NCc1cccnc1)c1ccc(NC(=O)c2ccc(Br)cc2)cc1,3.11 µM
25,Cc1ccc(C)c(-c2csc(N)c2C(=O)OC(C)C)c1,8.52 µM
26,CC(C)(Sc1ccc(CCN(CCCCC2CCCCC2)C(=O)NC2CCCCC2)cc1)C(=O)O,5.57 µM

row,Structure (SMILES),AC50
1,CC(C)Oc1ccc(C(=O)/C=C2/C(=O)Nc3ccccc32)cc1,6.4 µM
2,Cc1cccc(N2CCN(C(=S)Nc3ccc4nc(N5CCN(C)CC5)cc(C)c4c3)CC2C)c1 (stereo not drawn),7.35 µM
3,Cc1cc(C)cc(NS(=O)(=O)c2ccc3[nH]cc(C(=O)NCc4ccco4)c(=O)c3c2)c1,1.5 µM
4,Cc1ccc(NNC(=O)c2cccs2)cc1Cl,2.19 µM
5,Cn1nc([N+](=O)[O-])c(C(C#N)c2ccccn2)c(Cl)c1=O (stereo not drawn),15.3 µM
6,CCOC(=O)c1ccc(NC(=O)c2nc[nH]c2C(=O)NCCNC(=O)c2[nH]cnc2C(=O)Nc2ccc(C(=O)OCC)cc2)cc1,0.624 µM
7,Cn1cnc(Sc2ncnc3nc[nH]c23)c1[N+](=O)[O-],3.26 µM
8,COc1cc(-c2ccc3oc(-c4cccc(C)c4)c(C#CC4(O)CCCCC4)c3c2)cc(OC)c1OC,15.4 µM
9,CC1CCN(c2nc(Cl)nc(Nc3ccc([N+](=O)[O-])cc3)n2)CC1,3.41 µM
10,c1ccc(-c2cc(-c3ccncc3)nc3ccc4ccccc4c23)cc1,3.61 µM
11,CCCc1cc2c(=O)c(-c3ccc4c(c3)OCCO4)coc2cc1OC(=O)c1ccco1,10.9 µM
12,CC/C(=N\Nc1ccccc1)c1c(O)n(-c2ccc(OC)cc2)c(=O)[nH]c1=O,2.13 µM
13,Cc1c(C(=O)c2cccc3ccccc23)c2cccc3c2n1[C@H](CN1CCOCC1)CO3,3.66 µM
14,COc1cc(OC)cc(-c2sc3ccc(OC)cc3c2C#CCO)c1,6.89 µM
15,NC1=NC[C@@H](CC2CCCCC2)N1CCc1cc(C(F)(F)F)cc(C(F)(F)F)c1,2.74 µM
16,Cc1ccc(/C=C\c2nccc3c2[nH]c2ccccc23)cc1,13.2 µM
17,COc1ccc(-c2sc3ccccc3c2/C=C/c2ccncc2)cc1,6.68 µM
18,Oc1ccc(Nc2nc(-c3ccccc3O)nc3ccccc23)cc1,4.27 µM
19,CCCOc1ccc(C(=O)C(CN2CCCC2)c2ccccc2)cc1 (stereo not drawn),3.3 µM
20,c1ccc(CN2CCC(Nc3nc(-c4ccccc4)nc4ccccc34)CC2)cc1,6.67 µM
21,Clc1ccc(-c2ccc(/C=N/Nc3cc(N4CCOCC4)nc(N4CCOCC4)n3)o2)cc1,4.24 µM
22,O=Nc1c(O)n(Cc2ccc(Cl)cc2Cl)c2ccccc12,7.05 µM
23,O=C(/C=C/c1ccccc1)NNc1ccc(Cl)cc1,12 µM
24,Cc1nc([N+](=O)[O-])c(Br)n1CC(=O)c1ccc2ccccc2c1,6.46 µM
25,O=C1NC(=O)N(Cc2ccccc2)C(=O)/C1=C\C=C\c1ccco1,1.93 µM
26,FC(F)(F)c1cc(-c2ccc(Cl)cc2)nc(NCc2cccnc2)n1,14 µM

row,Structure (SMILES),AC50
1,CCc1cc2ccc(C)cc2nc1SCC(=O)c1ccc(NC(C)=O)cc1,9.7 µM
2,FC(F)(F)c1cc(CCN2C(=S)NC[C@@H]2CC2CCCCC2)cc(C(F)(F)F)c1,7.29 µM
3,O=C(Nc1cccc(S(=O)(=O)Nc2ccc(Cl)cc2)c1)c1cc2c(s1)CCCC2,2.79 µM
4,Cc1ccc(-c2nc(C(Cl)Cl)c3ccccc3n2)cc1,1.33 µM
5,Oc1ccc(/C=N/Nc2ccc(C(F)(F)F)cn2)c(O)c1,6.58 µM
6,O=C(Nc1ccc(Cl)cc1)N1CCCN(c2ccc(C(F)(F)F)cc2[N+](=O)[O-])CC1,6.57 µM
7,C/C(=N\NC(=O)c1cccc(Cl)c1)C1C(=O)c2ccccc2C1=O,20.1 µM
8,Cc1cccc(NC(=O)c2nc[nH]c2C(=O)NC2CCN(C(=O)OC(C)(C)C)CC2)c1,6.79 µM
9,CCc1ccc2c(c1)[C@H]1OCC[C@H]1[C@@H](c1cccs1)N2,2.06 µM
10,COC(=O)C1=C(c2cccc(C#N)c2)C[C@@H]2CC[C@H]1N2C(=O)NC1Cc2ccccc2C1,> 19.5 µM (inactive)
11,CN(C)CCNC(=O)COc1ccc(C23CC4CC(CC(C4)C2)C3)cc1,4.09 µM
12,Cc1ccc(NC2=NCC(Cc3ccc(Br)cc3)S2)cc1 (stereo not drawn),6.73 µM
13,C[C@@H]1O[C@@H](O[C@H]2C[C@@H](O)[C@]3(CO)[C@H]4[C@H](O)C[C@]5(C)[C@@H](C6COC(=O)C6)CC[C@]5(O)[C@@H]4CC[C@]3(O)C2)[C@H](O)[C@H](O)[C@H]1O (stereo partly drawn),0.74 µM
14,O=c1c2ccccc2nc(/C=C/c2ccc(Br)cc2)n1CCO,16.6 µM
15,C/C(=N\NC(N)=S)c1cc(-c2ccccc2)c(-c2ccccc2)s1,3.94 µM
16,CCOC(=O)/C(C#N)=C1\Nc2ccccc2N=C1N(CC(C)C)CC(C)C,8.73 µM
17,Cc1ccn2c(NC3CCCCC3)c(-c3cccc(SC4CCCCC4)c3)nc2c1,3.86 µM
18,CC(=O)Oc1ccc(-c2ccc(C(=O)Nc3cccc(S(=O)(=O)N4CCOCC4)c3)cc2)cc1,1.46 µM
19,Cc1ccccc1NCc1ccc([N+](=O)[O-])s1,10.6 µM
20,COc1ccc(/C=N/N(Cc2ccccc2)c2ccccc2)cc1O,6.77 µM
21,Cc1ccc(S(=O)(=O)Nc2ccc3c(c2)CC(=O)N([C@H](C)CO)C[C@@H](C)[C@H](CN(C)Cc2ccc(-c4ccccc4)cc2)O3)cc1,2.29 µM
22,CC(C)Cc1nc2oc3c(Cl)ncnc3c2c2c1CCCC2,4.82 µM
23,COc1cccc(Nc2nc(-c3ccccc3)nc3ccccc23)c1,7.67 µM
24,COc1ccc(C(=O)/C=C/c2ccc(OCc3ccccc3)cc2)cc1CSCC(=O)O,5.81 µM
25,CCC(CO)Oc1cc(NCc2ccc(Cl)cc2Cl)c2ncn(C(C)C)c2c1 (stereo not drawn),7.64 µM
26,CCN(CC)c1ccc2cc(S(=O)(=O)c3ccc(Cl)cc3)c(=O)oc2c1,4.98 µM

row,Structure (SMILES),AC50
1,COC(=O)c1c(NC(=O)c2ccc(C)c(S(=O)(=O)Nc3ccccc3C)c2)sc2c1CCCC2,1.31 µM
2,COc1ccc(/C=N/NC(=O)CCn2cnc(-c3ccccc3)c2-c2ccccc2)cc1OC,0.922 µM
3,CC(=O)Nc1ccc(SCC(=O)c2cc(C)n(Cc3cccs3)c2C)cc1,4.66 µM
4,CCCCCCc1cc2cc(S(=O)(=O)c3ccc(Cl)cc3)c(=O)oc2cc1O,9.25 µM
5,CCOC(=O)c1c(C)nc2c(c1-c1ccc(Cl)cc1)C(=O)CC(C)(C)C2,18.1 µM
6,CC1=CC(C)[C@H](/C=N/n2c(=O)[nH]c3c([nH]c4ccc(Br)cc43)c2=O)C(C)C1 (stereo partly drawn),1.46 µM
7,Cc1cc(=O)[nH]c(N/N=C/c2ccccn2)n1,1.53 µM
8,CCCOC(=O)c1ccc(Oc2c(-c3ccc(OCC)cc3O)n[nH]c2C)cc1,4.06 µM
9,COc1ccccc1OCCN1CSC(=S)N(C)C1,5.24 µM
10,COc1ccc(C2NCCc3c2[nH]c2ccccc32)cc1COc1ccc(F)cc1 (stereo not drawn),7.34 µM
11,O=C(Nc1ccc(-c2csc(Nc3cccc(C(F)(F)F)c3)n2)cc1)c1ccccc1,1.96 µM
12,COc1ccc(NC(=O)c2nc[nH]c2C(=O)N[C@@H](CC(C)C)C(=O)OC(C)(C)C)cc1,8.85 µM
13,Brc1ccc2[nH]c3c(N4CCc5ccccc5C4)ncnc3c2c1,17.3 µM
14,N#CCSc1nc2c(c(=O)n1Cc1ccco1)C1(CCCC1)Cc1ccccc1-2,0.468 µM
15,NC(=O)CC(NC(=O)c1ccc(Br)cc1)c1ccc(NCc2ccc(F)cc2)c([N+](=O)[O-])c1 (stereo not drawn),4.61 µM
16,Cn1c(=O)n(Cc2ccc(F)cc2)c(=O)c2c1nc1n2CCCN1C1CCCCC1,4.43 µM
17,C=C(C(=O)c1ccccc1)C(CC(=O)c1ccccc1)c1ccccc1 (stereo not drawn),3.6 µM
18,CCCCCCc1cc2cc(C(=O)Nc3ccccc3)c(=O)oc2cc1O,2.01 µM
19,CCN1CCN(CCCNC(=O)c2ccc3c(c2)NC(=O)/C(=C\c2cccc(C)c2)S3)CC1,3.62 µM
20,CC(C)c1ccc(N2C(=O)NC(=O)/C(=C\C=C\c3ccco3)C2=O)cc1,> 19.5 µM (inactive)
21,Cn1nnnc1Sc1ncnc2scc(-c3ccc(C(F)(F)F)cc3)c12,3.03 µM
22,Oc1ccc(C2=NN(c3ccccc3)C(c3ccc(F)cc3)C2)cc1 (stereo not drawn),3.45 µM
23,Cc1cccn2c(/C=N/OCc3cccc(F)c3)c(-c3ccc(Cl)cc3)nc12,10.5 µM
24,C=C(C(=O)c1ccccc1)C(C)C(=C)C(=O)c1ccccc1,1.85 µM
25,O=[N+]([O-])/C=C/c1cn(Cc2ccc(F)cc2)c2ccccc12,6.86 µM
